From patent US6780870B2, “Pyrimidine derivatives as selective inhibitors of COX-2” (SmithKline Beecham Corporation, priority 2000, dated 2004)
pIC50: −log10 of the molar value.

How the values were obtained:
human COX-2 = molecular target: T1, human COX-2 (Homo sapiens, UniProt P35354); experiment: Inhibition of PGE2 release in COS cells stably transfected with human COX-2; type: cell-based; conditions: COS cells stably transfected with cDNA for human COX-2; PGE2 release by enzyme immunoassay; 1 hour preincubation; 30 μM arachidonic acid, 15 minutes
T1 construct: expressed in transfected cells
T1 sequence (P35354 18-604): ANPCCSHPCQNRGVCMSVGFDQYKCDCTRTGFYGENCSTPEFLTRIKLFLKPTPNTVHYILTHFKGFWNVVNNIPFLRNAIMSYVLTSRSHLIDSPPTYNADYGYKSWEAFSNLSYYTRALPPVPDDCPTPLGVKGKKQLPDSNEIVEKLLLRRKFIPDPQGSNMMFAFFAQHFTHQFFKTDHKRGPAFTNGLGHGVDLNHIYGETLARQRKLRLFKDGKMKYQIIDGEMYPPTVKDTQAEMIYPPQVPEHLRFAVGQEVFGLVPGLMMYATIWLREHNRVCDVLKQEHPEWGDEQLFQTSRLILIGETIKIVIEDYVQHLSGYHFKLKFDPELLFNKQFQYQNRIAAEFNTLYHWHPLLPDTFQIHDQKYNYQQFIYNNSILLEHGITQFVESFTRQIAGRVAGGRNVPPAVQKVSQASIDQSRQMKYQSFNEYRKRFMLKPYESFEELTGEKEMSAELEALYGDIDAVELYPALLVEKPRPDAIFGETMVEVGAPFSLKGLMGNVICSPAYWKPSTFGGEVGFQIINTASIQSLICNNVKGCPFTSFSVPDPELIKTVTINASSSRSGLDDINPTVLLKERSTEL
Method: (§1) Inhibitory activity against human COX-1 and COX-2 was assessed in COS cells which had been stably transfected with cDNA for human COX-1 and human COX-2. 24 Hours prior to experiment, COS cells were transferred from the 175 cm^2 flasks in which they were grown, onto 24-well cell culture plates using the following procedure. The incubation medium (Dulbecco's modified eagles medium (DMEM) supplemented with heat-inactivated foetal calf serum (10% v/v), penicillin (100 IU/ml), streptomycin (100 μg/ml) and geneticin (600 μg/ml)) was removed from a flask of confluent cells (1 flask at confluency contains approximately 1×10^7 cells). 10 ml of phosphate buffered saline (PBS) was added to the flask to wash the cells. Having discarded the PBS, cells were then rinsed in 10 ml trypsin for 20 seconds, after which the trypsin was removed and the flask placed in an incubator (37°) for 1-2 minutes until cells became detached from the flask. The flask was then removed from the incubator and cells resuspended in 10 ml of fresh incubation medium. The contents of the flask was transferred to a 250 ml sterile container and the volume of incubation medium subsequently made up to 100 ml. 1 ml cell suspension was pipetted into each well of 4×24-well cell culture plates. The plates were then placed in an incubator (37° C., 95% air/5% CO2) overnight. If more than 1 flask of cells were required, the cells from the individual flasks were combined before being dispensed into the 24-well plates.
(§2) Following the overnight incubation, the incubation medium was completely removed from the 24-well cell culture plates and replaced with 250 μl fresh DMEM (37° C.). The test compounds were made up to 250× the required test concentration in DMSO and were added to the wells in a volume of 1 μl. Plates were then mixed gently by swirling and then placed in an incubator for 1 hour (37° C., 95% air/5% CO2). […] Plates were then incubated for a further 15 minutes, after which the incubation medium was removed from each well of the plates and stored at −20° C., prior to determination of prostaglandin E2 (PGE2) levels using enzyme immunoassay. […] The selectivity ratio of inhibition of COX-1 versus COX-2 was calculated by comparing respective IC50 values.

human COX-1 = molecular target: T2, human COX-1 (Homo sapiens, UniProt P23219); experiment: Inhibition of PGE2 release in COS cells stably transfected with human COX-1; type: cell-based; conditions: COS cells stably transfected with cDNA for human COX-1; PGE2 release by enzyme immunoassay; 1 hour preincubation; 30 μM arachidonic acid, 15 minutes
T2 construct: expressed in transfected cells
T2 sequence (P23219 24-599): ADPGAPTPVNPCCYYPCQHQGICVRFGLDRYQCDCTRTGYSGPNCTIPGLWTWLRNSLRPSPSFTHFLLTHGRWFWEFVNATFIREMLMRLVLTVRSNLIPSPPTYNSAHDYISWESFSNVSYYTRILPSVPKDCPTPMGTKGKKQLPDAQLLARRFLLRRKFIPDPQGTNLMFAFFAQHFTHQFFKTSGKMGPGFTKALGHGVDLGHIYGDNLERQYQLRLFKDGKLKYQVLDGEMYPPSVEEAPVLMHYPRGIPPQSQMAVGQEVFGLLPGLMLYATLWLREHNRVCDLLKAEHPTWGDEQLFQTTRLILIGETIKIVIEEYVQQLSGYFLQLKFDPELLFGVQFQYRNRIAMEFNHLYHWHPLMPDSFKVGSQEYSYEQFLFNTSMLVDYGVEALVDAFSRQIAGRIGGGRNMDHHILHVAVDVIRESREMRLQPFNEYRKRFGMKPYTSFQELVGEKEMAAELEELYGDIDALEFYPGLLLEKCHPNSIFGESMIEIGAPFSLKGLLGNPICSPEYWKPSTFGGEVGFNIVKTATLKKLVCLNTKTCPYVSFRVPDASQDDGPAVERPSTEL
Method: as §1, §2

| SMILES | pIC50 (human COX-2) | pIC50 (human COX-1) |
| --- | --- | --- |
| CS(=O)(=O)c1ccc(-c2cc(C(F)(F)F)nc(NCc3ccccn3)n2)cc1 [Example 3, 4-[4-(Methylsulfonyl)phenyl]-N-(pyridin-2-ylmethyl)-6-(trifluoromethyl)pyrimidin-2-amine] | 8.60 | < 4.00 |
| CS(=O)(=O)c1ccc(-c2cc(C(F)(F)F)nc(NCc3cccnc3)n2)cc1 [Example 2, 4-[4-(Methylsulfonyl)phenyl]-N-(pyridin-3-ylmethyl)-6-(trifluoromethyl)pyrimidin-2-amine] | 7.97 | < 4.00 |
| COc1ccc(CNc2nc(-c3ccc(S(C)(=O)=O)cc3)cc(C(F)(F)F)n2)cc1 [Example 9, N-(4-methoxybenzyl)-4-[4-(methylsulfonyl)phenyl]-6-(trifluoromethyl)pyrimidin-2-amine] | 7.47 | < 4.00 |

Molecules with a higher pIC50 (human COX-2), results first:

| pIC50 (human COX-2) | pIC50 (human COX-1) | SMILES |
| --- | --- | --- |
| 9.60 | < 4.00 | CS(=O)(=O)c1ccc(-c2cc(C(F)(F)F)nc(NCc3ccccc3)n2)cc1 [Example 4, 4-[4-(Methylsulfonyl)phenyl]-N-(phenylmethyl)-6-(trifluoromethyl)-2-pyrimidinamine] |
| 8.89 | < 4.00 | CS(=O)(=O)c1ccc(-c2cc(C(F)(F)F)nc(NCc3ccncc3)n2)cc1 [Example 1, 4-[4-(Methylsulfonyl)phenyl]-N-(pyridin-4-ylmethyl)-6-(trifluoromethyl)pyrimidin-2-amine] |
